In ChEMBL document CHEMBL4831492, “Design and synthesis of 2-(2-isonicotinoylhydrazineylidene)propanamides as InhA inhibitors with high antitubercular activity” (Eur J Med Chem, 2021):
Converted amounts (≈) assume the structure as drawn. The source made the active and inactive calls. The rule behind the calls is not given here.

What was measured:
[1] = test system: Mycobacterium tuberculosis; assay: Antimycobacterial activity against drug susceptible Mycobacterium tuberculosis H37Rv assessed as minimal inhibitory concentration required for complete inhibition of mycobacterial growth incubated for 14 days; assay type: functional; conditions: 336 h, time 14 day
[2] = test system: Mycobacterium tuberculosis; assay: Antimycobacterial activity against drug susceptible Mycobacterium tuberculosis H37Rv assessed as minimal inhibitory concentration required for complete inhibition of mycobacterial growth incubated for 21 days; assay type: functional; conditions: 504 h, time 21 day
Mycobacterium kansasii [3] = assay: Antimycobacterial activity against drug resistant Mycobacterium kansasii 6509/96 assessed as minimal inhibitory concentration required for complete inhibition of mycobacterial growth incubated for 7 days; assay type: functional; conditions: 6509/96, 168 h, time 7 day
Mycobacterium kansasii [4] = assay: Antimycobacterial activity against drug resistant Mycobacterium kansasii 6509/96 assessed as minimal inhibitory concentration required for complete inhibition of mycobacterial growth incubated for 14 days; assay type: functional; conditions: 6509/96, 336 h, time 14 day
Mycobacterium kansasii [5] = assay: Antimycobacterial activity against drug resistant Mycobacterium kansasii 6509/96 assessed as minimal inhibitory concentration required for complete inhibition of mycobacterial growth incubated for 21 days; assay type: functional; conditions: 6509/96, 504 h, time 21 day
Mycobacterium kansasii [6] = assay: Antimycobacterial activity against drug resistant Mycobacterium kansasii 235/80 assessed as minimal inhibitory concentration required for complete inhibition of mycobacterial growth incubated for 7 days; assay type: functional; conditions: 235/80, 168 h, time 7 day
Mycobacterium kansasii [7] = assay: Antimycobacterial activity against drug resistant Mycobacterium kansasii 235/80 assessed as minimal inhibitory concentration required for complete inhibition of mycobacterial growth incubated for 14 days; assay type: functional; conditions: 235/80, 336 h, time 14 day
Mycobacterium kansasii [8] = assay: Antimycobacterial activity against drug resistant Mycobacterium kansasii 235/80 assessed as minimal inhibitory concentration required for complete inhibition of mycobacterial growth incubated for 21 days; assay type: functional; conditions: 235/80, 504 h, time 21 day
[9] = test system: Mycobacterium tuberculosis; assay: Antimycobacterial activity against Mycobacterium tuberculosis H37Ra carrying pMC261/pVV16 plasmid assessed as bacterial growth inhibition incubated for 28 days by drop dilution method; assay type: functional; conditions: 672 h, time 28 day
[10] = test system: Mycobacterium tuberculosis; assay: Inhibition of mycolic acid synthesis in Mycobacterium tuberculosis H37Ra assessed as decrease in production of trehalose monomycolates at MIC incubated for 24 hrs followed by 14C labelling and further incubated for 24 hrs by TLC based autoradiography analysis; assay type: functional, organism-based; conditions: time 48.0 hrs
[11] = test system: Mycobacterium tuberculosis; assay: Inhibition of mycolic acid synthesis in Mycobacterium tuberculosis H37Ra assessed as decrease in production of trehalose dimycolates at MIC incubated for 24 hrs followed by 14C labelling and further incubated for 24 hrs by TLC based autoradiography analysis; assay type: functional, organism-based; conditions: time 48.0 hrs
[12] = test system: Mycobacterium tuberculosis; assay: Inhibition of mycolic acid synthesis in Mycobacterium tuberculosis H37Ra assessed as decrease in production of mycolic acid at MIC incubated for 24 hrs followed by 14C addition and further incubated for 24 hrs by TLC based autoradiography analysis; assay type: functional, organism-based; conditions: time 48.0 hrs
[13] = test system: Mycobacterium tuberculosis; assay: Inhibition of mycolic acid synthesis in Mycobacterium tuberculosis H37Ra assessed as decrease in production of standard fatty acid at MIC incubated for 24 hrs followed by 14C labelling and further incubated for 24 hrs by TLC based autoradiography analysis; assay type: functional, organism-based; conditions: time 48.0 hrs
HepG2 [14] = assay: Cytotoxicity against human HepG2 cells assessed as reduction in cell viability incubated overnight followed by compound washout by MTT assay; assay type: cell-based
HepG2 [15] = assay: Cytostatic activity in human HepG2 cells assessed as reduction in cell viability incubated overnight followed by compound washout and further incubated for 72 hrs in medium containing serum by MTT assay; assay type: functional, cell-based; conditions: HepG2, 72 h
Mycobacterium avium [16] = assay: Antimycobacterial activity against drug resistant Mycobacterium avium 330/88 assessed as inhibition of mycobacterial growth at 125 uM incubated for 14 days; assay type: functional, organism-based; conditions: time 14.0 day
Mycobacterium avium [17] = assay: Antimycobacterial activity against drug resistant Mycobacterium avium 330/88 assessed as inhibition of mycobacterial growth at 125 uM incubated for 21 days; assay type: functional, organism-based; conditions: time 21.0 day
[18] = Selectivity index, ratio of CC50 for cytotoxicity against human HepG2 cells to MIC for antimycobacterial activity against drug susceptible Mycobacterium tuberculosis H37Rv; assay type: toxicity, cell-based; conditions: read-out: Selectivity Index
[19] = Selectivity index, ratio of CC50 for cytotoxicity against human HepG2 cells to MIC for antimycobacterial activity against drug susceptible Mycobacterium […]; assay type: toxicity, cell-based; conditions: read-out: Selectivity Index
Mycobacterium avium [20] = assay: Antimycobacterial activity against drug resistant Mycobacterium avium 330/88 assessed as minimal inhibitory concentration required for complete inhibition of mycobacterial growth incubated for 14 days; assay type: functional; conditions: 330/88, 336 h, time 14 day
Mycobacterium avium [21] = assay: Antimycobacterial activity against drug resistant Mycobacterium avium 330/88 assessed as minimal inhibitory concentration required for complete inhibition of mycobacterial growth incubated for 21 days; assay type: functional; conditions: 330/88, 504 h, time 21 day
Mycobacterium avium [22] = assay: Antimycobacterial activity against drug resistant Mycobacterium avium 330/88 assessed as inhibition of mycobacterial growth at 500 uM incubated for 14 days; assay type: functional, organism-based; conditions: time 14.0 day
Mycobacterium avium [23] = assay: Antimycobacterial activity against drug resistant Mycobacterium avium 330/88 assessed as inhibition of mycobacterial growth at 500 uM incubated for 21 days; assay type: functional, organism-based; conditions: time 21.0 day

SMILES | MIC [1] | MIC [2] | MIC (Mycobacterium kansasii [3]) | MIC (Mycobacterium kansasii [4]) | MIC (Mycobacterium kansasii [5]) | MIC (Mycobacterium kansasii [6]) | MIC (Mycobacterium kansasii [7]) | MIC (Mycobacterium kansasii [8]) | IC50 (HepG2 [14]) | IC50 (HepG2 [15]) | selectivity ratio [18] | selectivity ratio [19] | MIC (Mycobacterium avium [20]) | MIC (Mycobacterium avium [21]) | further results
C/C(=N\NC(=O)c1ccncc1)C(=O)Nc1ccc(OC(F)(F)F)cc1 | ≤ 0.03 µM | ≤ 0.03 µM | 2 µM (≈ 0.733 µg/mL) | 2 µM (≈ 0.733 µg/mL) | 4 µM (≈ 1.47 µg/mL) | 8 µM (≈ 2.93 µg/mL) | 8 µM (≈ 2.93 µg/mL) | 16 µM (≈ 5.86 µg/mL) | > 50 µM | > 50 µM | > 1670 | > 12.5 | – | – | MIC [9]: 0.3 µM (≈ 0.11 µg/mL); inhibition [10]: Active; inhibition [11]: Active; inhibition [12]: Active; inhibition [13]: inactive; Activity (Mycobacterium avium [16]): inactive; Activity (Mycobacterium avium [17]): inactive
C/C(=N\NC(=O)c1ccncc1)C(=O)Nc1cc(Cl)cc(Cl)c1 | ≤ 0.25 µM | 0.25 µM (≈ 0.0878 µg/mL) | 16 µM (≈ 5.62 µg/mL) | 16 µM (≈ 5.62 µg/mL) | 32 µM (≈ 11.2 µg/mL) | > 250 µM | > 250 µM | > 250 µM | > 50 µM | > 50 µM | > 200 | > 1.56 | > 250 µM | > 250 µM | –
C/C(=N\NC(=O)c1ccncc1)C(=O)Nc1cccc(F)c1 | 0.25 µM (≈ 0.0751 µg/mL) | 0.25 µM (≈ 0.0751 µg/mL) | 2 µM (≈ 0.601 µg/mL) | 4 µM (≈ 1.2 µg/mL) | 8 µM (≈ 2.4 µg/mL) | – | – | – | – | – | – | – | – | – | Activity (Mycobacterium avium [22]): inactive; Activity (Mycobacterium avium [23]): inactive
C/C(=N\NC(=O)c1ccncc1)C(=O)Nc1ccc(OC(F)F)cc1 | 0.25 µM (≈ 0.0871 µg/mL) | 0.5 µM (≈ 0.174 µg/mL) | 2 µM (≈ 0.697 µg/mL) | 4 µM (≈ 1.39 µg/mL) | 8 µM (≈ 2.79 µg/mL) | – | – | – | – | – | – | – | > 1000 µM | > 1000 µM | –
C/C(=N\NC(=O)c1ccncc1)C(=O)Nc1cccc(C(F)(F)F)c1 | 0.125 µM (≈ 0.0438 µg/mL) | 0.25 µM (≈ 0.0876 µg/mL) | 2 µM (≈ 0.701 µg/mL) | 4 µM (≈ 1.4 µg/mL) | 8 µM (≈ 2.8 µg/mL) | – | – | – | – | – | – | – | > 1000 µM | > 1000 µM | –
C/C(=N\NC(=O)c1ccncc1)C(=O)Nc1ccc(F)cc1 | 0.25 µM (≈ 0.0751 µg/mL) | 0.25 µM (≈ 0.0751 µg/mL) | 2 µM (≈ 0.601 µg/mL) | 4 µM (≈ 1.2 µg/mL) | 8 µM (≈ 2.4 µg/mL) | 62.5 µM (≈ 18.8 µg/mL) | 125 µM (≈ 37.5 µg/mL) | 250 µM (≈ 75.1 µg/mL) | > 50 µM | > 50 µM | > 200 | > 625 | > 250 µM | > 250 µM | –
C/C(=N\NC(=O)c1ccncc1)C(=O)Nc1ccc(Cl)c(Cl)c1 | 0.06 µM (≈ 0.0211 µg/mL) | 0.06 µM (≈ 0.0211 µg/mL) | 4 µM (≈ 1.4 µg/mL) | 8 µM (≈ 2.81 µg/mL) | 16 µM (≈ 5.62 µg/mL) | > 250 µM | > 250 µM | > 250 µM | > 50 µM | > 50 µM | > 833 | > 3.12 | > 250 µM | > 250 µM | –
C/C(=N\NC(=O)c1ccncc1)C(=O)Nc1cccc(I)c1 | 0.125 µM (≈ 0.051 µg/mL) | 0.5 µM (≈ 0.204 µg/mL) | 4 µM (≈ 1.63 µg/mL) | 8 µM (≈ 3.27 µg/mL) | 8 µM (≈ 3.27 µg/mL) | – | – | – | – | – | – | – | > 1000 µM | > 1000 µM | –
C/C(=N\NC(=O)c1ccncc1)C(=O)Nc1cc(C(F)(F)F)cc(C(F)(F)F)c1 | 1 µM (≈ 0.418 µg/mL) | 1 µM (≈ 0.418 µg/mL) | 32 µM (≈ 13.4 µg/mL) | 32 µM (≈ 13.4 µg/mL) | 32 µM (≈ 13.4 µg/mL) | – | – | – | – | – | – | – | > 1000 µM | > 1000 µM | –
C/C(=N\NC(=O)c1ccncc1)C(=O)O [PYRUVIC ACID ISONIAZID] | 1 µM (≈ 0.207 µg/mL) | 1 µM (≈ 0.207 µg/mL) | 8 µM (≈ 1.66 µg/mL) | 16 µM (≈ 3.32 µg/mL) | 16 µM (≈ 3.32 µg/mL) | 8 µM (≈ 1.66 µg/mL) | 16 µM (≈ 3.32 µg/mL) | 16 µM (≈ 3.32 µg/mL) | > 50 µM | > 50 µM | > 50 | > 3.12 | 500 µM (≈ 104 µg/mL) | > 1000 µM | –
C/C(=N\NC(=O)c1ccncc1)C(=O)Nc1ccc(Cl)cc1 | 0.25 µM (≈ 0.0792 µg/mL) | 0.25 µM (≈ 0.0792 µg/mL) | 4 µM (≈ 1.27 µg/mL) | 8 µM (≈ 2.53 µg/mL) | 16 µM (≈ 5.07 µg/mL) | 16 µM (≈ 5.07 µg/mL) | 16 µM (≈ 5.07 µg/mL) | 16 µM (≈ 5.07 µg/mL) | > 50 µM | > 50 µM | > 200 | > 3.12 | 250 µM (≈ 79.2 µg/mL) | 250 µM (≈ 79.2 µg/mL) | –
